# Experiment: not given
# Conditions: not given
row,Compound,logP
1,O=C1C(=Cc2ccccc2)CCCc2ccccc21,4.48
2,CN(C)c1ccc(C=C2Cc3ccccc3C2=O)cc1,4.5
3,COc1ccccc1C=C1CCc2ccccc2C1=O,4.43
4,CN(C)c1ccc(C=C2CCc3ccccc3C2=O)cc1,4.91
5,O=C1C(=Cc2cccc(Br)c2)CCCc2ccccc21,5.35
6,COc1ccccc1C=C1CCCc2ccccc2C1=O,4.69
7,Cc1cccc(C=C2CCCc3ccccc3C2=O)c1,4.98
8,COc1ccc(C=C2Cc3ccccc3C2=O)cc1,3.91
9,O=C1C(=Cc2ccccc2Cl)CCCc2ccccc21,5.04
10,COc1cccc(C=C2Cc3ccccc3C2=O)c1,3.97
11,O=C1C(=Cc2ccc([N+](=O)[O-])cc2)CCCc2ccccc21,4.15
12,COc1cccc(C=CC(=O)c2ccccc2)c1,3.8
13,COc1ccc(/C=C/C(=O)c2ccccc2)cc1,3.67
14,O=C1/C(=C/c2ccccc2[N+](=O)[O-])CCCc2ccccc21,4.07
15,COc1cccc(/C=C2\CCc3ccccc3C2=O)c1,4.42

# The next lines start with the values.
row,logP,Compound
1,4.92,Cc1ccccc1C=C1CCCc2ccccc2C1=O
2,2.93,N#Cc1ccc(/C=C/C(=O)c2ccccc2)cc1
3,4.23,CN(C)c1ccc(/C=C/C(=O)c2ccccc2)cc1
4,4.72,COc1ccc(C=C2CCCc3ccccc3C2=O)cc1
5,4.32,COc1ccc(C=C2CCc3ccccc3C2=O)cc1
6,4.01,COc1ccccc1C=C1Cc2ccccc2C1=O
7,4.14,O=C1/C(=C\c2ccccc2)CCc2ccccc21
8,5.04,O=C1C(=Cc2ccccc2Br)CCCc2ccccc21
9,4.45,O=C1C(=Cc2ccc(F)cc2)CCCc2ccccc21
10,3.99,COc1ccccc1C=CC(=O)c1ccccc1
11,4.6,O=C1C(=Cc2cccc(F)c2)CCCc2ccccc21
12,5.1,Cc1ccc(C=C2CCCc3ccccc3C2=O)cc1
13,5.26,CN(C)c1ccc(C=C2CCCc3ccccc3C2=O)cc1
14,5.22,O=C1C(=Cc2ccc(Br)cc2)CCCc2ccccc21
15,4.32,O=C1C(=Cc2cccc([N+](=O)[O-])c2)CCCc2ccccc21
16,5.1,O=C1C(=Cc2ccc(Cl)cc2)CCCc2ccccc21

# Experiment: method code SF-AS, from Krisztina, T.; Perjesi, P.; Vámos, J. (2001). Determination of logP for biologically active chalcones and cyclic chalcone analogs by RPTLC. Journal of Planar Chromatography - Modern TLC. 14, 42-46.
# Conditions: pH 7.4
row,logD,Compound
1,3.66,O=C1C(=Cc2ccccc2)Cc2ccccc21
2,3.62,O=C(C=Cc1ccccc1)c1ccccc1

# From the SangsterLogP compilation
